Measured values: patent publication US10508085B2, “Compounds and methods for IDO and TDO modulation, and indications therefor” (Plexxikon Inc., priority 2016, dated 2019)
Like-named read-outs stand apart in the source and are kept apart here.

Experiments:
[1] = target: T1, Human Indoleamine 2,3-dioxygenase (IDO) (Homo sapiens, UniProt P14902); assay: Human IDO enzymatic assay (kynurenine level); assay type: biochemical; conditions: 6 nM IDO, 10 μM L-Trp; geometric mean; read-out: IDO1 GMean: IC50 (μM) (Biochemical Assay)
T1 construct: His tag (N); made in house; host or cells: E. coli
Outline: (§1)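 N-His human IDO (6 nM, 10 μM L-Trp, 5 μM methylene blue, 20 min) or TDO (1 nM, 350 μM L-Trp, 0.4 μM methylene blue, 70 min) run at room temp in pH 6.5 phosphate with ascorbate, catalase, Tween 20. TCA stop, 30 min 50 °C converts N-formylkynurenine to kynurenine; IC50 by nonlinear regression.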

[2] = target: T2, Human Tryptophan 2,3-dioxygenase (TDO) (Homo sapiens, UniProt P48775); assay: Human TDO enzymatic assay (kynurenine level); assay type: biochemical; conditions: 1 nM TDO, 350 μM L-Trp; geometric mean; read-out: TDO GMean: IC50 (μM) (Biochemical Assay)
T2 construct: His tag (N); made in house; host or cells: E. coli
Outline: as §1

[3] = target: T3, human IDO (IDO1-expressing HEK293 cells) (Homo sapiens, UniProt P14902); assay: Cell based kynurenine assay, IDO1-expressing HEK293 cell clones; conditions: IDO1-expressing HEK293 cells, geometric mean, read-out: HEK293 IDO1 Kynurenine GMean IC50 (μM) (Cellular Assay)
T3 construct: expressed in transfected cells
Outline: (§2)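 HEK293 stable clones (hIDO1 or hTDO, CMV-driven; G418-selected); 2.5×10^4 cells/well; compound serial dilution, 24 h, 37 °C, 5% CO2; supernatant kynurenine; IC50 by nonlinear fit.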

[4] = target: T4, human TDO (TDO-expressing HEK293 cells) (Homo sapiens, UniProt P48775); assay: Cell based kynurenine assay, TDO-expressing HEK293 cell clones; conditions: TDO-expressing HEK293 cells, geometric mean, read-out: HEK293 TDO Kynurenine GMean IC50 (μM) (Cellular Assay)
T4 construct: expressed in transfected cells
Outline: as §2

Measured: IC50

T3 sequence (P14902 whole entry): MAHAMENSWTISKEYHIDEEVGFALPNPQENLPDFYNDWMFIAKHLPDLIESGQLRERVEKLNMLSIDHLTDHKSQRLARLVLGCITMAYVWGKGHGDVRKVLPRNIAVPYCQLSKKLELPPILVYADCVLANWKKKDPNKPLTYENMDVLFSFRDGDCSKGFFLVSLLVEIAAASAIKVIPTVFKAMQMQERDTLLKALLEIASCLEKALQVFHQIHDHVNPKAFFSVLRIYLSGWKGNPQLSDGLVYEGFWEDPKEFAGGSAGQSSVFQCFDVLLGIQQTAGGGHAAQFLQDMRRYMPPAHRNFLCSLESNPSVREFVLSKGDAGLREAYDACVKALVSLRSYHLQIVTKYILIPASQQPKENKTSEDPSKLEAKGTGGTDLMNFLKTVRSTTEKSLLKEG
T1 sequence (P14902 whole entry): as above
T4 sequence (P48775 whole entry): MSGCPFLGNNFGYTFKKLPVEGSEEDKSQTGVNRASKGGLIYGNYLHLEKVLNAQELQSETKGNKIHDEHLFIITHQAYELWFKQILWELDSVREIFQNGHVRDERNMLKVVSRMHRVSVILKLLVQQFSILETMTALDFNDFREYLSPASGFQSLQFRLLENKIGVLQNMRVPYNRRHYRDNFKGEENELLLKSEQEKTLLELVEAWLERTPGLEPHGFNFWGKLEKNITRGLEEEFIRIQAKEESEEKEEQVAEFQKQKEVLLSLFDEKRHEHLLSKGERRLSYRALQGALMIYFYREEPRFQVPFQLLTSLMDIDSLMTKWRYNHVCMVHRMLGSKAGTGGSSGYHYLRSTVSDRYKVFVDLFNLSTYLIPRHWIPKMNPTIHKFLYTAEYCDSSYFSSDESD
T2 sequence (P48775 whole entry): as above

CC(C)(C1CCN(C(=O)Nc2cccc(C#N)c2)CC1)[C@H](O)c1cc(Cl)cc2cn[nH]c12 [Compound P-0569, (S)-4-(1-(5-chloro-1H-indazol-7-yl)-1-hydroxy-2-methylpropan-2-yl)-N-(3-cyanophenyl) piperidine-1-carboxamide]
0.0001 to 10 µM: [1] | [2] | [3]; 24 hours | [4]; 24 hours

CCOC(=O)N1CCC(C(C)(C)[C@H](O)c2cc(Cl)cc3cn[nH]c23)CC1 [Compound P-0541, ethyl (S)-4-(1-(5-chloro-1H-indazol-7-yl)-1-hydroxy-2-methylpropan-2-yl)piperidine-1-carboxylate]
0.0001 to 10 µM: [1] | [2] | [3]; 24 hours | [4]; 24 hours

CC(C)(C1CCN(C(=O)Nc2cccc(C#N)c2)CC1)C(O)c1cc(Cl)cc2cn[nH]c12 (centres unmarked) [Compound P-0360, 4-(1-(5-chloro-1H-indazol-7-yl)-1-hydroxy-2-methylpropan-2-yl)-N-(3-cyanophenyl) piperidine-1-carboxamide]
0.0001 to 10 µM: [1] | [2] | [3]; 24 hours incubation | [4]; 24 hours incubation

CC(C)(C)C1CC(O)(c2cc(Cl)cc3cn[nH]c23)C1 (centres unmarked) [Compound P-0214, 3-(tert-butyl)-1-(5-chloro-1H-indazol-7-yl)cyclobutan-1-ol]
0.0001 to 10 µM: [1] | [2] | [3]; 24 hours incubation | [4]; 24 hours incubation

CS(=O)(=O)N1CC2(C1)CC(O)(c1cc(Cl)cc3cn[nH]c13)C2 [Compound P-0028, 6-(5-chloro-1H-indazol-7-yl)-2-(methylsulfonyl)-2-azaspiro[3.3]heptan-6-ol]
10 to 100 µM: [1]
> 10 µM: [3]; 24 hours incubation
0.0001 to 10 µM: [2] | [4]; 24 hours incubation

CC(C)(C1CCN(C(=O)c2cccnc2)CC1)C(O)c1c(F)c(Cl)cc2cn[nH]c12 (centres unmarked) [Compound P-0418, (4-(1-(5-chloro-6-fluoro-1H-indazol-7-yl)-1-hydroxy-2-methylpropan-2-yl)piperidin-1-yl)(pyridin-3-yl)methanone]
0.0001 to 10 µM: [1] | [2] | [3]; 24 hours | [4]; 24 hours

OC1(c2cc(Cl)cc3cn[nH]c23)C2CC3CC(C2)CC1C3 [Compound P-0380, (1R,2R,5S)-2-(5-chloro-1H-indazol-7-yl)adamantan-2-ol]
0.0001 to 10 µM: [1] | [2] | [4]; 24 hours incubation
> 10 µM: [3]; 24 hours incubation

O=C(Nc1ccc(Cl)cc1)N1CCC(C(F)(F)C(O)c2cc(Cl)cc3cn[nH]c23)CC1 (centres unmarked) [Compound P-0484, 4-(2-(5-chloro-1H-indazol-7-yl)-1,1-difluoro-2-hydroxyethyl)-N-(4-chlorophenyl) piperidine-1-carboxamide]
0.0001 to 10 µM: [1] | [2] | [3]; 24 hours | [4]; 24 hours

CNC(=O)N1CCC(C(F)(F)C(O)c2cc(Cl)cc3cn[nH]c23)CC1 (centres unmarked) [Compound P-0142, 4-(2-(5-chloro-1H-indazol-7-yl)-1,1-difluoro-hydroxyethyl)-N-methylpiperidine-1-carboxamide]
0.0001 to 10 µM: [1] | [2] | [3]; 24 hours incubation | [4]; 24 hours incubation

CC1(C(O)c2cc(Cl)cc3cn[nH]c23)CCC(F)(F)CC1 (centres unmarked) [Compound P-0032, (5-chloro-1H-indazol-7-yl)(4,4-difluoro-1-methylcyclohexyl)methanol]
0.0001 to 10 µM: [1] | [2] | [3]; 24 hours incubation | [4]; 24 hours incubation

CS(=O)(=O)N1C2CCC1CN(c1cc(C(F)(F)F)cc3cn[nH]c13)C2 [Compound P-0095, 7-(8-(methylsulfonyl)-3,8-diazabicyclo[3.2.1]octan-3-yl)-5-(trifluoromethyl)-1H-indazole]
0.0001 to 10 µM: [1] | [2] | [3]; 24 hours incubation | [4]; 24 hours incubation

CCCNC(=O)N1CCC(C(C)(C)[C@H](O)c2cc(Cl)cc3cn[nH]c23)CC1 [Compound P-0567, (S)-4-(1-(5-chloro-1H-indazol-7-yl)-1-hydroxy-2-methylpropan-2-yl)-N-propylpiperidine-1-carboxamide]
0.0001 to 10 µM: [1] | [2] | [3]; 24 hours | [4]; 24 hours

CCC(=O)N1CCC(C(C)(C)[C@H](O)c2cc(Cl)cc3cn[nH]c23)CC1 [Compound P-0444, (S)-1-(4-(1-(5-chloro-1H-indazol-7-yl)-1-hydroxy-2-methylpropan-2-yl)piperidin-1-yl)propan-l-one]
0.0001 to 10 µM: [1] | [2] | [3]; 24 hours | [4]; 24 hours

CCNC(=O)N1CCC(C(C)(C)C(O)c2cc(Cl)cc3cn[nH]c23)CC1 (centres unmarked) [Compound P-0399, 4-(1-(5-chloro-1H-indazol-7-yl)-1-hydroxy-2-methylpropan-2-yl)-N-ethylpiperidine-1-carboxamide]
0.0001 to 10 µM: [1] | [2] | [3]; 24 hours incubation | [4]; 24 hours incubation

OC(c1cccc2cncn12)C1CCCCCCC1 (centres unmarked) [Compound P-0063]
> 10 µM: [3]; 24 hours incubation | [4]; 24 hours incubation
0.0001 to 10 µM: [1] | [2]

CC(C)(C(O)c1cc(Cl)cc2cn[nH]c12)[C@@H]1C[C@H]2CC[C@@H](C1)N2S(C)(=O)=O (stereo partly drawn) [Compound P-0272, 1-(5-chloro-1H-indazol-7-yl)-2-methyl-2-((1R,3s,5S)-8-(methylsulfonyl)-8-azabicyclo[3.2.1]octan-3-yl)propan-1-ol]
0.0001 to 10 µM: [1] | [2] | [3]; 24 hours incubation | [4]; 24 hours incubation

OC(c1c(F)c(Cl)cc2cn[nH]c12)C12CCC(F)(CC1)CC2 (centres unmarked) [Compound P-0299, (5-chloro-6-fluoro-1H-indazol-7-yl)(4-fluorobicyclo[2.2.2]octan-1-yl)methanol]
0.0001 to 10 µM: [1] | [2] | [3]; 24 hours incubation | [4]; 24 hours incubation

C[C@H](NC(=O)N1CCC(C(C)(C)C(O)c2cc(Cl)cc3cn[nH]c23)CC1)c1ccccc1 (stereo partly drawn) [Compound P-0354, 4-(1-(5-chloro-1H-indazol-7-yl)-1-hydroxy-2-methylpropan-2-yl)-N-((S)-1-phenylethyl) piperidine-1-carboxamide]
0.0001 to 10 µM: [1] | [2] | [3]; 24 hours incubation | [4]; 24 hours incubation

OC(c1c2c(cc3cn[nH]c13)CC2)C1CC2CCC1C2 (centres unmarked) [Compound P-0293, bicyclo[2.2.1]heptan-2-yl(5,6-dihydro-1H-cyclobuta[f]indazol-7-yl)methanol]
0.0001 to 10 µM: [1] | [2] | [3]; 24 hours incubation | [4]; 24 hours incubation

O=C(C1CC1)N1CCC(C(F)(F)C(O)c2c(F)c(Cl)cc3cn[nH]c23)CC1 (centres unmarked) [Compound P-0343, (4-(2-(5-chloro-6-fluoro-1H-indazol-7-yl)-1,1-difluoro-2-hydroxyethyl)piperidin-1-yl)(cyclopropyl) methanone]
0.0001 to 10 µM: [1] | [2] | [3]; 24 hours incubation | [4]; 24 hours incubation

COCCCNC(=O)N1CCC(C(C)(C)[C@H](O)c2cc(Cl)cc3cn[nH]c23)CC1 [Compound P-0553, (S)-4-(1-(5-chloro-1H-indazol-7-yl)-1-hydroxy-2-methylpropan-2-yl)-N-(3-methoxypropyl) piperidine-1-carboxamide]
0.0001 to 10 µM: [1] | [2] | [3]; 24 hours | [4]; 24 hours

CC(C)(C1CCN(C(=O)OCC(F)(F)F)CC1)C(O)c1cc(Cl)cc2cn[nH]c12 (centres unmarked) [Compound P-0177, 2,2,2-trifluoroethyl 4-(1-(5-chloro-1H-indazol-7-yl)-1-hydroxy-2-methylpropan-2-yl)piperidine-1-carboxylate]
0.0001 to 10 µM: [1] | [2] | [3]; 24 hours incubation | [4]; 24 hours incubation

OC(c1cc(Cl)cc2cn[nH]c12)C1(C2CCC2)CCC1 (centres unmarked) [Compound P-0186, [1,1′-bi(cyclobutan)]-1-yl(5-chloro-1H-indazol-7-yl)methanol]
0.0001 to 10 µM: [1] | [2] | [3]; 24 hours incubation | [4]; 24 hours incubation

CCC(=O)NC(C)(C)CC(O)c1cc(Cl)cc2cn[nH]c12 (centres unmarked) [Compound P-0170, N-(4-(5-chloro-1H-indazol-7-yl)-4-hydroxy-2-methylbutan-2-yl)propionamide]
> 10 µM: [3]; 24 hours incubation | [4]; 24 hours incubation
0.0001 to 10 µM: [1] | [2]

CCCC(=O)N1CCC(C(C)(C)C(O)c2cc(Cl)cc3cn[nH]c23)CC1 (centres unmarked) [Compound P-0460, 1-(4-(1-(5-chloro-1H-indazol-7-yl)-1-hydroxy-2-methylpropan-2-yl)piperidin-1-yl)butan-1-one]
0.0001 to 10 µM: [1] | [2] | [3]; 24 hours | [4]; 24 hours

CC(C)(C1CCN(C(=O)CN2CCOCC2)CC1)[C@H](O)c1cc(Cl)cc2cn[nH]c12 [Compound P-0501, (S)-1-(4-(1-(5-chloro-1H-indazol-7-yl)-1-hydroxy-2-methylpropan-2-yl)piperidin-1-yl)-2-morpholinoethan-1-one]
0.0001 to 10 µM: [1] | [2] | [3]; 24 hours | [4]; 24 hours
